These results are taken from PMC7496286, “The Selectivity of Fosfosal for STAT5b over STAT5a is Mediated by Arg566 in the Linker Domain” (Chembiochem, 2020).

Residue numbers refer to the chain shown, from its start.

For assay [1], the target named is T1, STAT5a SH2 domain (Homo sapiens, UniProt P42229).
T1 construct: His; made in house
T1 sequence (P42229 1-794): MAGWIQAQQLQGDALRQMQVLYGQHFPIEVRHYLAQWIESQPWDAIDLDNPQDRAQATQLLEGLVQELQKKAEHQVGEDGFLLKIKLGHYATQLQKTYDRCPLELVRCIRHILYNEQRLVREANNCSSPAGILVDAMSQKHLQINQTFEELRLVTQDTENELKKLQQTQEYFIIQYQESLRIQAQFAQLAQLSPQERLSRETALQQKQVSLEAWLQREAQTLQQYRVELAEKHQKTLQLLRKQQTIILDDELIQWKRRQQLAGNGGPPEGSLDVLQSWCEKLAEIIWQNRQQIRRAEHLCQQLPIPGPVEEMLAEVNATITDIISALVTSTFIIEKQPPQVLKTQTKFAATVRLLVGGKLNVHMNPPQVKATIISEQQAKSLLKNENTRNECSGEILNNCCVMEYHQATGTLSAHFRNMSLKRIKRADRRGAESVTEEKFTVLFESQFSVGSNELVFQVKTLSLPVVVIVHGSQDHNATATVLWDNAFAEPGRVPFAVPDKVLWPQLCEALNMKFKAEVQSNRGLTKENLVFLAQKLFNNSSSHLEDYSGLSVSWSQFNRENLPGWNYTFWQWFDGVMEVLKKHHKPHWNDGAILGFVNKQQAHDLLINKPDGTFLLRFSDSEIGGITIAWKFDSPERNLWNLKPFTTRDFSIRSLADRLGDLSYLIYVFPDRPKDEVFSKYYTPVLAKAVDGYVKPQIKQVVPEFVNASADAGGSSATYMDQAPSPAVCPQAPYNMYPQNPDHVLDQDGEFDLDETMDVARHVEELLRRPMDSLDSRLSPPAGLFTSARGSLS
As to the kind of experiment: FP-based competitive binding assay, wild-type STAT5a. The method, then: (§1) Fluorescence polarization assays
(§2) The ability of test compounds to displace 5-carboxyfluorescein-GY(PO3H2)LVLDKW (final concentration: 10 nM) from the SH2 domain of STAT5a/b proteins was analyzed. Proteins […]
(§3) was applied in dilution series comprising the following concentrations: 0.024 – 200 µM […]
(§4) and 0.146 – 600 µM (STAT5b Arg566Glu), respectively. The assays were performed in buffer containing 10 mM Tris, 50 mM NaCl, 1 mM DTT, 1 mM EDTA and 0.1% (v/v) NP-40. Fosfosal was dissolved in DMSO. STAT5a/b proteins and fosfosal were incubated at room temperature for 1 h before adding peptide. Samples were transferred to 384-well microtiter plates and fluorescence polarization was read after a further 1 h incubation time. All measurements were performed in triplicate (n=3), except for STAT5b (n=6) and STAT5a Trp566Arg (n=4). Percent binding was calculated based on a logarithmic curve fit using OriginPro 8G software. IC50 values were converted to Ki values using the published equation.[4] […]
(§5) [4] Z. Nikolovska-Coleska, R. Wang, X. Fang, H. Pan, Y. Tomita, P. Li, P. P. Roller, K.
(§6) Krajewski, N. G. Saito, J. A. Stuckey, S. Wang, Anal. Biochem. 2004, 332, 261-273.

Assay [2] deals with T2, STAT5b Arg566Trp (Homo sapiens, UniProt P51692, R566W).
T2 construct: His; made in house
T2 sequence (P51692 1-787 R566W): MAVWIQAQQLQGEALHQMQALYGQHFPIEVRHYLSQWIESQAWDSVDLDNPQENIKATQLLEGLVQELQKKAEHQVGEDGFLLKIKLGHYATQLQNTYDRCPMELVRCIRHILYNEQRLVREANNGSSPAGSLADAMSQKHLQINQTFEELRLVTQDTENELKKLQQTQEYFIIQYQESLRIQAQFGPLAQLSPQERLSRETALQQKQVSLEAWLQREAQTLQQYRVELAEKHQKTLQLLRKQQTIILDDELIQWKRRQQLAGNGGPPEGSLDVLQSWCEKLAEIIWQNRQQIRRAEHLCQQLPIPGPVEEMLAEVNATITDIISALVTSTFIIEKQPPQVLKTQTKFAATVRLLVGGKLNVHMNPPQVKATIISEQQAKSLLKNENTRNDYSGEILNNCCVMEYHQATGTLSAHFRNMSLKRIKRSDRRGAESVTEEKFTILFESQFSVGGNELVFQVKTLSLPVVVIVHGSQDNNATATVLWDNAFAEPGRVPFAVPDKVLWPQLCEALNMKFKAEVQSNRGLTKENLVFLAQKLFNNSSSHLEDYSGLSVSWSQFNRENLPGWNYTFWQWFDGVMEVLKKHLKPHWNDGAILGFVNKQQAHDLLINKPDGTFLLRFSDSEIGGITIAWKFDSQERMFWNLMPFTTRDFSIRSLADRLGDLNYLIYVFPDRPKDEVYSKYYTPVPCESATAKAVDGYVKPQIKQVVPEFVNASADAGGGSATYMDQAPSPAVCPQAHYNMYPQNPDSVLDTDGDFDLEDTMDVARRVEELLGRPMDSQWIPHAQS
Description: FP-based competitive binding assay, STAT5b Arg566Trp. The method, then: as §1, §2, §3, §4, §5, §6

For assay [3], the target named is T3, STAT5b Met644Lys (Homo sapiens, UniProt P51692, M644K).
T3 construct: His; made in house
T3 sequence (P51692 1-787 M644K): T2 sequence (P51692 1-787 R566W) with W566R, M644K
Description: FP-based competitive binding assay, STAT5b Met644Lys. The method, then: as §1, §2, §3, §4, §5, §6

For the compound `CC(C)C[C@H](NC(=O)[C@H](Cc1ccc(OP(=O)(O)O)cc1)NC(=O)CNC(=O)c1ccc2c(c1)C(=O)OC21c2ccc(O)cc2Oc2cc(O)ccc21)C(=O)N[C@H](C(=O)N[C@@H](CC(C)C)C(=O)N[C@@H](CC(=O)O)C(=O)N[C@@H](CCCCN)C(=O)N[C@@H](Cc1c[nH]c2ccccc12)C(=O)O)C(C)C` [5-carboxyfluorescein-GY(PO3H2)LVLDKW], the dissociation constant (Kd) (as a rule, the constant that tells how readily two partners part at equilibrium) in assay [1] stood at 0.147 µM; in assay [2] it was 0.289 µM; in assay [3] it was 0.026 µM.
For `O=C(O)c1ccccc1OP(=O)(O)O` [fosfosal, O‐phosphorylated salicylic acid], the IC50 – broadly, the concentration at which inhibition is half-maximal – is 299 ± 17 µM in assay [1] (wild-type STAT5a) and 36.6 ± 2 µM in assay [3] (STAT5b Met644Lys). Moreover, the Ki (commonly the dissociation constant of the complex between target and ligand, obtained from inhibition or displacement) is 148 ± 9 µM in assay [1] (wild-type STAT5a, Ki calculated from IC50 with published equation) and 17.2 ± 0.9 µM in assay [3] (STAT5b Met644Lys, Ki calculated from IC50). Moreover, the inhibition – broadly, how much of the control response was suppressed – at 600 µM in assay [2] (STAT5b Arg566Trp, 600 μM, the highest concentration tested) was found to be 24 ± 2%.
